Values quoted from earlier work, collected in patent US20250099408A1, “IMPROVED SURAMIN METHODS AND COMPOSITIONS” (priority 2022, published 2025).

Tested on: HIV
Conditions: suramin 1 g IV

For `Cc1ccc(C(=O)Nc2ccc(S(=O)(=O)O)c3cc(S(=O)(=O)O)cc(S(=O)(=O)O)c23)cc1NC(=O)c1cccc(NC(=O)Nc2cccc(C(=O)Nc3cc(C(=O)Nc4ccc(S(=O)(=O)O)c5cc(S(=O)(=O)O)cc(S(=O)(=O)O)c45)ccc3C)c2)c1` [suramin], the “virus in the blood circulation” value (HIV patients) is given as “almost clearing the virus from the blood circulation” and the “clinical improvement of the patients” value is given as “did not give clinical improvements”.
